According to patent publication US20040038968A1, “Thiazolidinedione derivative and its use as antidiabetic” (priority 2000, published 2004):

How the values were obtained:
[1] = Solubility in water (visual, confirmed by HPLC assay of a saturated solution); assay type: physicochemical; settings: thermodynamic from solid
Experimental: The solubility of the material was determined by adding water in aliquots from […] to approximately 100 mg of drug substance until the powder had dissolved. The visual solubility was confirmed by an HPLC assay of a saturated solution. Solubility: >100 mg/ml.

[2] = Solid state stability (storage for 1 month, HPLC assay); assay type: physicochemical; settings: glass bottle
Experimental: The solid state stability of the drug substance was determined by storing approximately 1.0 g of the material in a glass bottle at a) 40° C./75 % Relative Humidity (RH), open exposure, for 1 month and b) at 50° C., closed, for 1 month. The material was assayed by HPLC for final content and degradation products in both cases.

CN(CCOc1ccc(CC2SC(=O)NC2=O)cc1)c1ccccn1.[K] (centres unmarked) [Potassium Salt, 5-[4-[2-(N-Methyl-N-(2-pyridyl)amino)ethoxy]benzyl]thiazolidine-2,4-dione, potassium salt]
solubility [1]: > 100 mg/mL | Degradation (HPLC, degradation products) ([2]; 40° C./75% RH, open exposure): No significant degradation observed | HPLC assay for final content ([2]; 40° C./75% RH, open exposure): 101 % initial | Degradation (HPLC, degradation products) ([2]; 50° C., closed): No significant degradation observed | HPLC assay for final content ([2]; 50° C., closed): 99 % initial
